Earlier results as cited in patent US12662707B2, “MYC amplification drives resistance to pan-RAS inhibitors in pancreatic cancer” (The Trustees of Columbia University in the City of New York, priority 2024, dated 2026).

Test system: autochthonous KPC pancreatic tumors
Conditions: reference 27; cited from earlier work

Nc1ccn([C@@H]2O[C@H](CO)[C@@H](O)C2(F)F)c(=O)n1 [gemcitabine]
effect on survival in the KPC model: do not significantly alter survival
